According to patent publication US20240382555A1, “PEPTIDES WITH ANTI-ANGIOGENIC ACTIVITY” (priority 2021, published 2024):

Columns and labels:
Type in all cases: cell-based, human
[1] = tested on: HUVECs; assay: Tube formation assay, HUVECs on growth factor-reduced Matrigel with pro-angiogenic stimuli; conditions: for anti-angiogenic activity (number of tubes/well): HUVECs, 50 ng/ml VEGF-A or FGF-2, 10 ng/ml peptide, FIG. 5
Experimental: Tube formation assays were performed as described in Caccuri F. et al., “Evolution toward beta common chain receptor usage links the matrix proteins of HIV-1 and its ancestors to human erythropoietin,” Proc Natl Acad Sci USA. 2021; 11810.
Briefly, 150 μl of Cultrex Basement Membrane Extract (Matrigel; 10 mg/ml) (Trevigen Inc., Gaithersburg, MD, USA) or reduced growth factor Matrigel (Trevigen Inc.) were transferred to prechilled 48-well culture plates. The plates were then incubated for 1 h at 37° C.
Cells were resuspended in EGM growth medium containing 10% FBS and seeded (5×10^4 per well). […] Capillary structures were photographed with a Hitachi KP-D50 camera and then quantified as the number of tubes/well.
In some experiments, HUVECs were stimulated with optimal concentrations of human pro-angiogenic molecules such as vascular endothelial growth factor-A (VEGF-A), fibroblast growth factor-2 (FGF-2), or interleukin-8 (IL-8). Experiments were conducted using nucleofected cells or cells stimulated with U94-derived peptides.
To evaluate the ability of the peptide of sequence SEQ ID No. 2 to influence the ability of HUVECs to respond to stimulation exerted by different angiogenic mediators, HUVECs were seeded on growth-reduced Matrigel in the absence (NT) or presence of optimal concentrations of different pro-angiogenic stimuli (VEGF-A, FGF-2, or IL-8) alone or in the presence of a control peptide (CTRL) or of the peptide of sequence SEQ ID No. 2 (KDKY).
HUVECs were seeded on reduced growth factor Matrigel-coated wells wells in complete medium containing 50 ng/ml of VEGF-A or FGF-2 alone or in combination with 10 ng/ml of the control peptide (CTRL), or KDKY, AKDY, KAKY, KDAY or KDKA.
HUVECs were seeded on reduced growth factor Matrigel-coated wells in complete medium containing 50 ng/ml of VEGF-A or FGF-2 alone or in combination with 10 ng/ml of CTRL, KDKY, DKY or DRY.

[2] = tested on: HUVECs; assay: Spheroids assay, HUVEC spheroids in type I collagen gel with pro-angiogenic stimuli; conditions: HUVEC spheroids stimulated with VEGF-A, FGF-2 or IL-8; FIG. 2
Experimental: The assay was performed using nucleofected cells or cells stimulated with U94-derived peptides. Spheroids were generated by mixing HUVECs (1.5×10^5 cells/ml) with 5 mg/ml methylcellulose (Sigma-Aldrich) in EGM growth medium containing 10% FBS, bringing the final volume to 10 ml.
The cells (100 μl/well) were then added to 96-well plates (Greiner Bio-one, Kremsmünster, Austria) and incubated at 37° C., in a 5% CO2 atmosphere for 24 hours.
Separately, the collagen I gel solution (Rat Tail, Corning) was maintained on ice and neutralized by adding NaOH 0.1 M and PBS 10× to a final pH of 7.4.
Then, 24-well plates were coated with neutralized collagen (200 μl/well) and incubated in a humidified 5% CO2 incubator for 1 hour at 37° C.
The spheroids from the 96-well plates were collected in Eppendorf tubes and centrifuged at 4000×rpm for 5 to 10 seconds. When a clear pellet was distinguished, the supernatant was removed and the pellet was kept in a volume of about 100 μl of collagen I-neutralized solution.
Each collagen-spheroid mixture was rapidly added to pre-coated 24-well plates at 100 μl/well and incubated for 1 h. […]
Sprouting occurred from the spheroid core, which was photographed with a Hitachi KP-D50 camera, and the sprout number was counted with the spheroids similar sizes from three different wells of the plate. […]

[3] = tested on: SARS-CoV-2-infected HL-mECs; conditions: growth factor-reduced Matrigel; MOI 1; FIG. 3
[4] = tested on: SARS-CoV-2-infected HL-mECs; conditions: SARS-CoV-2-infected spheroids; FIG. 4

Row | Substance | anti-angiogenic activity (number of tubes/well) [1] | angiogenic activity (tube formation, number of tubes/well) ([1]; HUVECs stimulated with VEGF-A, FGF-2 or IL-8, 8 hours after seeding on Matrigel, FIG. 1) | sprouting response (number of sprouts per spheroid) [2] | angiogenic activity (number of tubes/well) of SARS-CoV-2-infected HL-mECs [3] | SARS-CoV-2-induced angiogenesis (number of sprouts per spheroid) [4]
1 | DKY | able to block angiogenic activity | – | – | – | –
2 | ADKY [tetra-peptide, first amino acid of KDKY replaced by alanine] | maintained potent anti-angiogenic activity | – | – | – | –
3 | DRY | able to block angiogenic activity | – | – | – | –
4 | KDKY [SEQ ID No. 2] | able to block angiogenic activity | significantly impaired | drastic reduction in the sprouting response | did not perform any angiogenic activity | potently inhibited
